For this data set the following is noted: a range is the spread between reports.

Molecules are shown by their SMILES.

In a melting point compilation (Tetko et al.) one finds melting point data, which are given here for 141 compounds.

As to `CCCc1ccc(C(=O)O)cc1`, the melting point (commonly the temperature, or range, at which the solid turns liquid) was in the range of 142 to 143 °C.

In turn, `OCCCCCCCCCCCCO` gave a melting point of 81.3 to 83 °C.

Regarding `CC(=O)OCCCCOC(C)=O`, the melting point was 12 to 13 °C.

In turn, `O=C(O)CCCCCCCCC(=O)O` showed a melting point of 131 to 134 °C.

Regarding `N#CCc1ccc([N+](=O)[O-])cc1`, the melting point was in the range of 116 to 117 °C.

On to `OCC1CCCNC1` (stereo unspecified), for which the melting point is 60 to 61 °C.

Take `NC(=O)CCl`: the melting point lay in the range of 118 to 121 °C.

For the compound `COCCOc1c(OC)cc(Cc2cnc(N)nc2N)cc1OC`, the melting point is 154 °C.

`CCCC#CCCC` returned a melting point of -103 to -101 °C.

The compound `CCn1c2ccccc2c2ccccc21` had a melting point of 68 to 69 °C.

On to `c1ccc2cnccc2c1`, for which the melting point was 26 to 26.5 °C.

For `CCc1cccc(C)c1`, the melting point is -96 to -95.5 °C.

Take `CC(C)(c1ccccc1)c1ccc(O)cc1`: the melting point is 70 to 75 °C.

In the case of `Cc1ccc(C(C)C)cc1O`, the melting point was in the range of 1 to 2 °C.

In the case of `NNc1c(F)c(F)cc(F)c1F`, the melting point is 89 to 92 °C.

The compound `Nc1cnc2ccccc2c1` came in with a melting point of 91.5 to 94 °C.

In turn, `CCOCCOCCO` had a melting point of -80 to -76 °C.

Regarding `NC1CCCCC1`, the melting point is -18 to -17 °C.

On to `C=C(c1ccccc1)c1ccccc1`, for which the melting point was in the range of 6 to 8.2 °C.

The compound `CCOC(=O)c1cccnc1` returned a melting point of 8.5 to 9 °C.

Consider `O/N=C\c1ccccc1`, for which the melting point was 35 to 36.5 °C.

The compound `OCC(Cl)(Cl)Cl` gave a melting point of 18 to 19 °C.

`O=C(c1ccccc1)c1ccccc1O` registered a melting point of 39 to 40 °C.

Take `Brc1cc(Br)c(Br)s1`: the melting point lay within 27 to 29 °C.

Compound `Clc1ccc(SSc2ccc(Cl)cc2)cc1` yielded a melting point of 68 to 73 °C.

`CCC(CC)CC` returned a melting point of -119 °C.

For the compound `Cc1ccncc1`, the melting point was 3 to 3.66 °C.

As to `CC(C)CC(C)C(C)C` (stereo unspecified), the melting point was -128 °C.

For `CCCCCCCCCCCCCCCCCCCCCCCCCCCCCC`, the melting point was in the range of 65.8 to 67 °C.

In the case of `O=[N+]([O-])c1cccc(Cl)c1Cl`, the melting point fell in the range of 61.5 to 62 °C.

`Cc1ccccc1CCl` came in with a melting point of -2 to 2 °C.

`N#CCCC(Br)(C#N)CBr` (stereo unspecified) returned a melting point of 50 to 52 °C.

In turn, `ClCC(Cl)CCl` came in with a melting point of -15 to -14 °C.

Compound `CCCCCCCO` displayed a melting point of -36 to -33.2 °C.

Turning to `CCCCCCCCC#CCCCCCCCC(=O)O`, the melting point was in the range of 45 to 48 °C.

In turn, `CCNc1nc(Cl)nc(NCC)n1` came in with a melting point of 226 to 228 °C.

In turn, `Cc1ccc(Cc2ccc(C)cc2)cc1` gave a melting point of 28 to 29 °C.

Regarding `CCCC1CCCC1`, the melting point was -117 °C.

Compound `O=C(O)c1cc([N+](=O)[O-])cc([N+](=O)[O-])c1O` came in with a melting point of 170 to 171 °C.

Compound `C=C(C)C(C)CC` (stereo unspecified) had a melting point of -134 °C.

Compound `CC(C)(C)c1ccc(O)c(C(C)(C)C)c1` gave a melting point of 54.5 to 56.5 °C.

Turning to `CC(C)c1ccc(C(=O)O)cc1`, the melting point was 118 to 119 °C.

Consider `ClC(c1ccccc1)c1ccccc1`, for which the melting point fell in the range of 16 to 19 °C.

`Cc1cc(C)c(C(=O)O)c(C)c1` displayed a melting point of 152 to 154 °C.

As to `N#CNC(=N)N`, the melting point is 208 to 211 °C.

For `CC(C(=O)O)c1ccc(N2Cc3ccccc3C2=O)cc1` (stereo unspecified), the melting point lay in the range of 212 to 214 °C.

For `OCCCCO`, the melting point is 16 to 20.4 °C.

Consider `N#Cc1cccc(N)c1`, for which the melting point was 52 to 54.3 °C.

`O=C(O)c1cccc(Cl)c1` came in with a melting point of 156 to 158 °C.

In turn, `NCCCN1CCN(CCCN)CC1` came in with a melting point of 14 to 15 °C.

Turning to `c1ccc(-c2ncc[nH]2)cc1`, the melting point is 148 to 149 °C.

Compound `CCOc1ccc2ccccc2c1C=O` displayed a melting point of 112 to 115 °C.

`CC(C)C1CCCC1` had a melting point of -111 °C.

The compound `COC(C)OC` came in with a melting point of -113 °C.

As to `Cc1ccc(C)cc1`, the melting point lay within 12 to 13.2 °C.

As to `CCCCCCCCC(C)O` (stereo unspecified), the melting point is -5 to -2 °C.

`COc1ccccc1C(=O)c1ccccc1` came in with a melting point of 37 to 41 °C.

Compound `c1ccc(-c2ccccc2-c2ccccc2)cc1` gave a melting point of 56 to 57 °C.

On to `CCN(CC)c1ccc(Br)cc1`, for which the melting point lay in the range of 34 to 38 °C.

Compound `O=[N+]([O-])c1cc(F)ccc1O` registered a melting point of 73 to 75 °C.

Compound `CCOC(=O)n1ccn(C)c1=S` registered a melting point of 124 °C.

`OCc1c(Cl)cccc1Cl` had a melting point of 97 to 98 °C.

Compound `Cc1c(C(=O)O)cc([N+](=O)[O-])cc1[N+](=O)[O-]` showed a melting point of 205 to 206 °C.

With `CCCCCCCC(=O)OCC`, the melting point is -47 to -43.1 °C.

The compound `Nc1ccc([N+](=O)[O-])cc1` gave a melting point of 146 to 150 °C.

As to `O=C(O)c1cccc([N+](=O)[O-])c1Cl`, the melting point fell in the range of 181 to 184 °C.

`O=S(=O)(Cc1ccccc1)Cc1ccccc1` had a melting point of 151 to 152 °C.

In turn, `C=CCSCC=C` came in with a melting point of -85 to -83 °C.

`O=C(O)c1ccnc2ccccc12`: the melting point was found to be 254 °C.

For `CC(C)CC(N)=O`, the melting point is 136 to 137 °C.

Regarding `CC12C=CC(=O)C=C1CCC1C2C(O)CC2(C)C1CCC2(O)C(=O)CO` (stereo unspecified), the melting point lay within 235 to 240 °C.

`O=Cc1cccc([N+](=O)[O-])c1` showed a melting point of 58 to 59 °C.

For the compound `N#Cc1ccc(O)cc1`, the melting point was 112 °C.

Regarding `BrCC(Br)Br`, the melting point was -29.3 to -29 °C.

With `Cc1ccc(C)c(N)c1`, the melting point was 12 to 15.5 °C.

Take `O=C(O)c1cc(Cl)ccc1Cl`: the melting point fell in the range of 152 to 156 °C.

On to `CC(CCC(=O)O)C1CCC2C3C(O)CC4CC(O)CCC4(C)C3CC(O)C12C` (stereo unspecified), for which the melting point is 198 to 201 °C.

Turning to `C1=CCCCC1`, the melting point was -104 °C.

As to `O=[N+]([O-])c1ccc(CCl)cc1`, the melting point fell in the range of 71 to 73 °C.

Compound `CCCOC(=O)c1ccc(O)cc1` gave a melting point of 96 to 97 °C.

`CN1CCN(CCCN2c3ccccc3Sc3ccccc32)CC1`: the melting point was in the range of 52 to 53 °C.

As to `Nc1ccc2ccccc2c1`, the melting point was in the range of 112 to 113 °C.

As for `O=C(/C=C1\Cc2ccccc21)c1ccccc1`, the melting point lay in the range of 50 to 55 °C.

`CCC(Br)CC` registered a melting point of -126 °C.

The compound `C=CCC1CCCC1` had a melting point of -111 °C.

Consider `Nc1cccnc1`, for which the melting point fell in the range of 61 to 64.5 °C.

As for `Cc1ccc(Br)cc1`, the melting point was in the range of 25 to 28.5 °C.

`CC(=O)Nc1ccc(C)cc1` returned a melting point of 149 to 152 °C.

In the case of `Cc1ccccc1-c1ccccc1C`, the melting point is 18 to 19.5 °C.

On to `COc1ccc(C(=O)O)cc1`, for which the melting point was 184 to 185 °C.

`CC(C)C(O)C(C)(C)C` (stereo unspecified) came in with a melting point of -13 to -11 °C.

`Nc1nc(Cl)cc(Cl)n1` gave a melting point of 220 °C.

`O=C(O)c1cc([N+](=O)[O-])ccc1O` had a melting point of 230 to 232 °C.

`CCCCCCCCCCCCCCCC(=O)OC` showed a melting point of 30 to 31 °C.

Regarding `CC(Cl)(Cl)Cl`, the melting point is -33 to -30 °C.

`CC(C)(C)c1ccc(C(=O)O)cc1` yielded a melting point of 164 to 166 °C.

Turning to `ClCCCCCCl`, the melting point was -73 to -72 °C.

With `CC(C)C#N`, the melting point is -72 to -71.5 °C.

`CCCCCCCCCCCCOC(=O)c1cc(O)c(O)c(O)c1` displayed a melting point of 96.5 to 97 °C.

Turning to `CC(=O)c1ccc(C(F)(F)F)cc1`, the melting point lay within 31 to 32 °C.

Compound `CCOC(=O)c1cc(C)n[nH]1` came in with a melting point of 82 to 87 °C.

Compound `CCC(N)=O` registered a melting point of 78 to 81.3 °C.

With `c1ccc(N=C(Nc2ccccc2)Nc2ccccc2)cc1`, the melting point lay within 144 to 146 °C.

The compound `O=c1ccc2ccc(O)cc2o1` showed a melting point of 230 °C.

Turning to `CC(N)=O`, the melting point fell in the range of 79 to 81 °C.

As for `CC1(C)CCCCC1`, the melting point was -33.3 to -33 °C.

In the case of `CCCCOC=O`, the melting point is -92 to -91.5 °C.

`CC(C)(C)Cl` had a melting point of -26 to -25 °C.

Turning to `C[N+](=O)[O-]`, the melting point was -29 to -28.5 °C.

`CN1C2CCC1CC(=O)C2`: the melting point lay within 42 to 43 °C.

Take `CCCCCCCCCCBr`: the melting point was -30 to -29 °C.

Compound `CCCCCC(C)(C)O` came in with a melting point of -50.4 to -50 °C.

In the case of `O=C(/C=C/c1ccc2ccccc2c1)/C=C/c1ccc2ccccc2c1`, the melting point lay within 242 to 245 °C.

`N#Cc1cc(Cl)ccc1N` displayed a melting point of 96 to 97 °C.

For `O=C(O)c1cccs1`, the melting point was in the range of 128 to 130 °C.

`CCCCCCCCCCCC(=O)O` yielded a melting point of 43.2 to 45 °C.

On to `N#CCc1ccc(Br)cc1`, for which the melting point fell in the range of 47 to 48 °C.

In turn, `COc1cc(C=O)cc(OC)c1` had a melting point of 46 to 47 °C.

As to `N#Cc1ccc2c(c1)OCO2`, the melting point lay within 93 to 94 °C.

`C=C(C)[C@@H]1CCC2=CC(=O)C[C@@H](C)[C@]2(C)C1`: the melting point lay within 36 to 36.9 °C.

Turning to `COC(=O)CCCCC(=O)OC`, the melting point lay within 8 to 10.3 °C.

In turn, `COc1ccc(N)cc1` returned a melting point of 57 to 59 °C.

`Oc1c(F)c(F)c(F)c(F)c1F`: the melting point was 32.8 to 35 °C.

`OCC1c2ccccc2-c2ccccc21` showed a melting point of 104 to 106 °C.

In turn, `Brc1ccc(Br)c(Br)c1` showed a melting point of 42 to 44.5 °C.

`O=C(O)c1cccc(F)c1F` came in with a melting point of 162 to 164 °C.

For `CCCS`, the melting point was -113 °C.

In turn, `CC(C)CCCC(C)C1CCC2C3CC=C4CC(O)CCC4(C)C3CCC12C` (stereo unspecified) came in with a melting point of 148 to 149 °C.

On to `OCc1ccccc1O`, for which the melting point fell in the range of 85 to 87 °C.

`Cc1cccc(-c2cccc(C)c2)c1` displayed a melting point of 7 to 9 °C.

In the case of `CF`, the melting point was -143 to -142 °C.

`CCCCCCCCCCCCCCC`: the melting point fell in the range of 9.9 to 10 °C.

Compound `C=C=C(C)C` registered a melting point of -114 °C.

For `CCc1ccccc1Br`, the melting point is -68 to -67.9 °C.

Compound `CC(Cl)Cl` showed a melting point of -97 to -96.9 °C.

For `Nc1ccc(Oc2ccccc2)cc1`, the melting point lay in the range of 83 to 84 °C.

As for `CCc1nnc(N)s1`, the melting point lay in the range of 200 to 201 °C.

As for `CCCCCC(C)CC` (stereo unspecified), the melting point was -108 °C.

Compound `Nc1ccccc1C=O` returned a melting point of 38 to 39 °C.

Take `O=C=Nc1ccc(Cl)c(Cl)c1`: the melting point lay within 42 to 43 °C.

For the compound `CCC1=CCCC1`, the melting point is -118 °C.
